According to patent US20260042731A1, “(2,4-DICHLOROPHENOXY)ACETIC ACID ANALOGS” (CORTEVA AGRISCIENCE LLC, priority 2022, published 2026):
Where two headings read alike, the source gives them in different places.

Columns and labels:
[1] = test system: weeds ABUTH, AMATA, AMBEL, CHEAL, ERICA; assay: Postemergence herbicide evaluation, overall average % weed control (ABUTH, AMATA, AMBEL, CHEAL, ERICA); type: in vivo; details: post-emergence, read-out: Overall Ave % Weed Control; for pest or weed control at 280 g/ha: 280 g ae/ha; for pest or weed control at 560 g/ha: 560 g ae/ha
[2] = test system: Abutilon theophrasti (ABUTH), velvetleaf; assay: Postemergence herbicide evaluation, growth of Abutilon theophrasti (ABUTH); type: in vivo; details: Abutilon theophrasti, post-emergence, read-out: AVE. ABUTH, percent reduction in plant size relative to the untreated control; for pest or weed control at 280 g/ha: 280 g ae/ha; for pest or weed control at 560 g/ha: 560 g ae/ha
[3] = test system: Ambrosia artemisiifolia (AMBEL), common ragweed; assay: Postemergence herbicide evaluation, growth of Ambrosia artemisiifolia (AMBEL); type: in vivo; details: Ambrosia artemisiifolia, post-emergence, read-out: AVE. AMBEL, percent reduction in plant size relative to the untreated control; for pest or weed control at 280 g/ha: 280 g ae/ha; for pest or weed control at 560 g/ha: 560 g ae/ha
[4] = test system: Amaranthus rudis (AMATA), tall water hemp; assay: Postemergence herbicide evaluation, growth of Amaranthus rudis (AMATA); type: in vivo; details: Amaranthus tuberculatus, post-emergence, read-out: Ave. AMATA, percent reduction in plant size relative to the untreated control; for pest or weed control at 280 g/ha: 280 g ae/ha; for pest or weed control at 560 g/ha: 560 g ae/ha
[5] = test system: Chenopodium album (CHEAL), common lambsquarters; assay: Postemergence herbicide evaluation, growth of Chenopodium album (CHEAL); type: in vivo; details: Chenopodium album, post-emergence, read-out: Ave. CHEAL, percent reduction in plant size relative to the untreated control; for pest or weed control at 280 g/ha: 280 g ae/ha; for pest or weed control at 560 g/ha: 560 g ae/ha
[6] = test system: glyphosate resistant Conyza canadensis (L.) (ERICA), horseweed; assay: Postemergence herbicide evaluation, growth of Conyza canadensis (ERICA); type: in vivo; details: Erigeron canadensis, post-emergence, read-out: Ave. ERICA, percent reduction in plant size relative to the untreated control; for pest or weed control at 280 g/ha: 280 g ae/ha; for pest or weed control at 560 g/ha: 560 g ae/ha
[7] = Volatility of compounds measured by thermogravimetric analysis (TGA); type: physicochemical

Structure (SMILES) | pest or weed control at 280 g/ha ([1]; 168 h, 7 DAA) | pest or weed control at 560 g/ha ([1]; 168 h, 7 DAA) | pest or weed control at 280 g/ha ([1]; 336 h, 14 DAA) | pest or weed control at 560 g/ha ([1]; 336 h, 14 DAA) | pest or weed control at 280 g/ha ([1]; 504 h, 21 DAA) | pest or weed control at 560 g/ha ([1]; 504 h, 21 DAA) | pest or weed control at 280 g/ha ([2]; 168 h, 7 DAA) | pest or weed control at 560 g/ha ([2]; 168 h, 7 DAA) | pest or weed control at 280 g/ha ([2]; 336 h, 14 DAA) | pest or weed control at 560 g/ha ([2]; 336 h, 14 DAA) | pest or weed control at 280 g/ha ([2]; 504 h, 21 DAA) | pest or weed control at 560 g/ha ([2]; 504 h, 21 DAA) | pest or weed control at 280 g/ha ([3]; 168 h, 7 DAA) | pest or weed control at 560 g/ha ([3]; 168 h, 7 DAA) | pest or weed control at 280 g/ha ([3]; 336 h, 14 DAA) | pest or weed control at 560 g/ha ([3]; 336 h, 14 DAA) | pest or weed control at 280 g/ha ([3]; 504 h, 21 DAA) | pest or weed control at 560 g/ha ([3]; 504 h, 21 DAA) | pest or weed control at 280 g/ha ([4]; 168 h, 7 DAA) | pest or weed control at 560 g/ha ([4]; 168 h, 7 DAA) | further results
C/C(=N\OC(=O)COc1ccc(Cl)cc1Cl)c1cccnc1 [Compound A26] | 72% | 80.3% | 85.3% | 93.4% | 90.2% | 97.5% | 62.5% | 67.5% | 72.5% | 92.5% | 96% | 100% | 80% | 77.5% | 72.5% | 90% | 100% | 100% | 65% | 94% | pest or weed control at 280 g/ha ([4]; 336 h, 14 DAA): 85%; pest or weed control at 560 g/ha ([4]; 336 h, 14 DAA): 90%; pest or weed control at 280 g/ha ([4]; 504 h, 21 DAA): 67.5%; pest or weed control at 560 g/ha ([4]; 504 h, 21 DAA): 92.5%; pest or weed control at 280 g/ha ([5]; 168 h, 7 DAA): 72.5%; pest or weed control at 560 g/ha ([5]; 168 h, 7 DAA): 80%; pest or weed control at 280 g/ha ([5]; 336 h, 14 DAA): 97.5%; pest or weed control at 560 g/ha ([5]; 336 h, 14 DAA): 95%; pest or weed control at 280 g/ha ([5]; 504 h, 21 DAA): 87.5%; pest or weed control at 560 g/ha ([5]; 504 h, 21 DAA): 95%; pest or weed control at 280 g/ha ([6]; 168 h, 7 DAA): 80%; pest or weed control at 560 g/ha ([6]; 168 h, 7 DAA): 82.5%; pest or weed control at 280 g/ha ([6]; 336 h, 14 DAA): 99%; pest or weed control at 560 g/ha ([6]; 336 h, 14 DAA): 99.5%; pest or weed control at 280 g/ha ([6]; 504 h, 21 DAA): 100%; pest or weed control at 560 g/ha ([6]; 504 h, 21 DAA): 100%; TGA Data (rate of weight loss, volatility) ([7]; value marked *: decomposition of the material was observed): 1.599* μg/min
O=C(COc1ccc(Cl)cc1Cl)O/N=C/c1ccncc1 [Compound A30] | 78% | 86.1% | 91.5% | 95.5% | 95.4% | 98.6% | 62.5% | 80% | 77.5% | 96.5% | 87.5% | 99.5% | 85% | 96.5% | 90% | 97.5% | 100% | 100% | 75% | 94% | pest or weed control at 280 g/ha ([4]; 336 h, 14 DAA): 96%; pest or weed control at 560 g/ha ([4]; 336 h, 14 DAA): 93.5%; pest or weed control at 280 g/ha ([4]; 504 h, 21 DAA): 92.5%; pest or weed control at 560 g/ha ([4]; 504 h, 21 DAA): 99%; pest or weed control at 280 g/ha ([5]; 168 h, 7 DAA): 80%; pest or weed control at 560 g/ha ([5]; 168 h, 7 DAA): 80%; pest or weed control at 280 g/ha ([5]; 336 h, 14 DAA): 94%; pest or weed control at 560 g/ha ([5]; 336 h, 14 DAA): 90%; pest or weed control at 280 g/ha ([5]; 504 h, 21 DAA): 98%; pest or weed control at 560 g/ha ([5]; 504 h, 21 DAA): 100%; pest or weed control at 280 g/ha ([6]; 168 h, 7 DAA): 87.5%; pest or weed control at 560 g/ha ([6]; 168 h, 7 DAA): 80%; pest or weed control at 280 g/ha ([6]; 336 h, 14 DAA): 100%; pest or weed control at 560 g/ha ([6]; 336 h, 14 DAA): 100%; pest or weed control at 280 g/ha ([6]; 504 h, 21 DAA): 99%; pest or weed control at 560 g/ha ([6]; 504 h, 21 DAA): 94.5%; TGA Data (rate of weight loss, volatility) [7]: 0.9679 µg/min
C/C(=N\OC(=O)COc1ccc(Cl)cc1Cl)c1ccccc1Cl [Compound A24] | 74% | 71.5% | 87% | 83.8% | 89.6% | 89.8% | 62.5% | 57.5% | 77.5% | 67.5% | 80% | 85% | 70% | 75% | 75% | 75% | 97.5% | 100% | 82.5% | 72.5% | pest or weed control at 280 g/ha ([4]; 336 h, 14 DAA): 92.5%; pest or weed control at 560 g/ha ([4]; 336 h, 14 DAA): 90%; pest or weed control at 280 g/ha ([4]; 504 h, 21 DAA): 77.5%; pest or weed control at 560 g/ha ([4]; 504 h, 21 DAA): 72.5%; pest or weed control at 280 g/ha ([5]; 168 h, 7 DAA): 75%; pest or weed control at 560 g/ha ([5]; 168 h, 7 DAA): 77.5%; pest or weed control at 280 g/ha ([5]; 336 h, 14 DAA): 91.5%; pest or weed control at 560 g/ha ([5]; 336 h, 14 DAA): 95%; pest or weed control at 280 g/ha ([5]; 504 h, 21 DAA): 98.5%; pest or weed control at 560 g/ha ([5]; 504 h, 21 DAA): 94.5%; pest or weed control at 280 g/ha ([6]; 168 h, 7 DAA): 80%; pest or weed control at 560 g/ha ([6]; 168 h, 7 DAA): 75%; pest or weed control at 280 g/ha ([6]; 336 h, 14 DAA): 98.5%; pest or weed control at 560 g/ha ([6]; 336 h, 14 DAA): 91.5%; pest or weed control at 280 g/ha ([6]; 504 h, 21 DAA): 94.5%; pest or weed control at 560 g/ha ([6]; 504 h, 21 DAA): 97%; TGA Data (rate of weight loss, volatility) [7]: 0.03549 µg/min
